The source of these data is ChEMBL document CHEMBL1145498, “A systematic interaction map of validated kinase inhibitors with Ser/Thr kinases” (Proc Natl Acad Sci U S A, 2007).

Where only a bound is given, the exact number is not on record here.

The target in assay [1] is T1, Dual specificity mitogen-activated protein kinase kinase 6 (Homo sapiens) (UniProt P52564).
T1 sequence (whole entry): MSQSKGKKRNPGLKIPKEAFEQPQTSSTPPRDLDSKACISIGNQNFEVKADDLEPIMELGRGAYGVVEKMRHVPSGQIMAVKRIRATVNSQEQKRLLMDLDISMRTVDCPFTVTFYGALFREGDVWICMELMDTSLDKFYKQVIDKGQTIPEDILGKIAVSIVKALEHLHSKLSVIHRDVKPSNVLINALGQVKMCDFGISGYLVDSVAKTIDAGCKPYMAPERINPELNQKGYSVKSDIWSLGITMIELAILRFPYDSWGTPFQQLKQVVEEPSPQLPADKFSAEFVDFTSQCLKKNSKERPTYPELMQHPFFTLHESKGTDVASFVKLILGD

For assay [2], the target named is Dual specificity protein kinase CLK2 (Homo sapiens) (UniProt P49760).
Dual specificity protein kinase CLK2 (Homo sapiens), sequence (P49760 whole entry, looked up): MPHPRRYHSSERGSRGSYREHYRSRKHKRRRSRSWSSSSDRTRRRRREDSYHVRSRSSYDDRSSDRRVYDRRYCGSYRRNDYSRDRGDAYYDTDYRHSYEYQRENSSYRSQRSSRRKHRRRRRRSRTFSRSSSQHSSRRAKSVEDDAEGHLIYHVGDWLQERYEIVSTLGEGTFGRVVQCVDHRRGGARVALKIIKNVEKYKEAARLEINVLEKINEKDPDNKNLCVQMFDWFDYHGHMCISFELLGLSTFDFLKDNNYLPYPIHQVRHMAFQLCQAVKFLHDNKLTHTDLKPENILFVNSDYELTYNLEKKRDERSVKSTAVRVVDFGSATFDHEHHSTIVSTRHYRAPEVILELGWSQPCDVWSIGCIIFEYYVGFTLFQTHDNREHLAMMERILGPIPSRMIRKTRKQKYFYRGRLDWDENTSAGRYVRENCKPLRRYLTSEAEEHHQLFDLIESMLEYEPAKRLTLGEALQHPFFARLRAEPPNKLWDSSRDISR
Assay [3] has as its target Calcium/calmodulin-dependent protein kinase type II subunit beta (Homo sapiens) (UniProt Q13554).
Assay [4] deals with Mitogen-activated protein kinase 11 (Homo sapiens, UniProt Q15759).
Mitogen-activated protein kinase 11, sequence (Q15759 whole entry): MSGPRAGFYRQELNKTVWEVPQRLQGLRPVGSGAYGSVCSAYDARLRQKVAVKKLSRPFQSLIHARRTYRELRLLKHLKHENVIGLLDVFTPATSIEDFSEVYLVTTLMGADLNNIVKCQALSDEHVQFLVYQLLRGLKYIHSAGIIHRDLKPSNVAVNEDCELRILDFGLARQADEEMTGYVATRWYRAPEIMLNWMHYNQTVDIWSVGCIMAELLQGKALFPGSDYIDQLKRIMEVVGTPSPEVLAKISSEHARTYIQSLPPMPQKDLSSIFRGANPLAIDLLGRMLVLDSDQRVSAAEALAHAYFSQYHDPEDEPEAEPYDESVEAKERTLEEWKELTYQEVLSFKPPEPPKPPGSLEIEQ
A short description of assay [5]: Inhibition of JNK.
Assay [6] has as its target Calcium/calmodulin-dependent protein kinase type II subunit delta (Homo sapiens) (UniProt Q13557).
The target of assay [7] is Calcium/calmodulin-dependent protein kinase type II subunit gamma (Homo sapiens) (UniProt Q13555).
Calcium/calmodulin-dependent protein kinase type II subunit gamma (Homo sapiens), sequence (Q13555 whole entry): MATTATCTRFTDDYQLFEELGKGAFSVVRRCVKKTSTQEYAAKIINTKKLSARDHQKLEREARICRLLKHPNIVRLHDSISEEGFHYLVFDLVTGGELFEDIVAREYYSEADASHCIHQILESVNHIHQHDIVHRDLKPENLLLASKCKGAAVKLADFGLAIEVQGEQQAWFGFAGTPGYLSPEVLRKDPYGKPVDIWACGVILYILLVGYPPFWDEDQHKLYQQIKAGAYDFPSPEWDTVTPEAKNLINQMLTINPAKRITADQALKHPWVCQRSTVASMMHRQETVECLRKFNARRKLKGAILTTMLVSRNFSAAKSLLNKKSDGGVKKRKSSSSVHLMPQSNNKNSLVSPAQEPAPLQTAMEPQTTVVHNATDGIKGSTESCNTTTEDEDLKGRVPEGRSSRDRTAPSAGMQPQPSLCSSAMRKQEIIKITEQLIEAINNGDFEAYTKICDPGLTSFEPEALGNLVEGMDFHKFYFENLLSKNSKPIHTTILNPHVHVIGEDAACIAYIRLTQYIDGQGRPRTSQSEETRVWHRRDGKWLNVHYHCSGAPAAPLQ
Assay [8] concerns the target Glycogen synthase kinase-3 beta (Homo sapiens, UniProt P49841).
The target of assay [9] is T2, Serine/threonine-protein kinase VRK1 (Homo sapiens) (UniProt Q99986).
T2 sequence (whole entry): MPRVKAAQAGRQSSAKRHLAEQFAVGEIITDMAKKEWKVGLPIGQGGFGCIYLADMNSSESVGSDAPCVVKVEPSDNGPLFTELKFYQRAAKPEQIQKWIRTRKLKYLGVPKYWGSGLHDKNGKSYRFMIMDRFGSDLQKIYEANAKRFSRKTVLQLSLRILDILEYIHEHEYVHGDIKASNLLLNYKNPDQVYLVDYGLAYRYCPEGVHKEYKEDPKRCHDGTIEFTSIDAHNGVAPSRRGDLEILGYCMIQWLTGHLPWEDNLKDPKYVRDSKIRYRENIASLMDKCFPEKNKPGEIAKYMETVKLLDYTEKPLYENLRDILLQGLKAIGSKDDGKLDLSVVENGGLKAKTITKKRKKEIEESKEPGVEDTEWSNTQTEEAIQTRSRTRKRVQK

Assay [10] has as its target Tyrosine-protein kinase ZAP-70 (Homo sapiens, UniProt P43403). As to the kind of experiment: Inhibition of ZAP70.
In assay [11] the target is T3, Protein kinase C epsilon type (Homo sapiens, UniProt Q02156).
T3 sequence (Q02156 whole entry): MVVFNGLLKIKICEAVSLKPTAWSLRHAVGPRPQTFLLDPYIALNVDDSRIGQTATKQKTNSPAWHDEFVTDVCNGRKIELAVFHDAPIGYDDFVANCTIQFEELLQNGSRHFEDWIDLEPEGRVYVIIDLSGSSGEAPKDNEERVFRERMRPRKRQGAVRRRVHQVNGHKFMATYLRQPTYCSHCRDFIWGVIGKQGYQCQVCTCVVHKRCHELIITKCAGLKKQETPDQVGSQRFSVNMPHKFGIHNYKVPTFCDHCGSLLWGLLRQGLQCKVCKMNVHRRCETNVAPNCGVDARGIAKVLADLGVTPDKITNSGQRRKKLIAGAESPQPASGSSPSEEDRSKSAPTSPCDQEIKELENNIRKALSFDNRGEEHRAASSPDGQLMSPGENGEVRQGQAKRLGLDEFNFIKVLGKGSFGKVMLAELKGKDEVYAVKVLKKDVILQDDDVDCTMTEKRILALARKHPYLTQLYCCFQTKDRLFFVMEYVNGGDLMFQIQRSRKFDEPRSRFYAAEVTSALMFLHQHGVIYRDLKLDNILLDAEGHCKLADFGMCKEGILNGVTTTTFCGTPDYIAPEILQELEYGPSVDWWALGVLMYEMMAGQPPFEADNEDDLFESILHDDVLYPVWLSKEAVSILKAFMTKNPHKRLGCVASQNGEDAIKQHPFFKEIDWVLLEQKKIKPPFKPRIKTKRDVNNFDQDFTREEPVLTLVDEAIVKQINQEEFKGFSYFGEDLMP
As to the kind of experiment: Inhibition of PKCepsilon.

Assay [12] can be described thus: Inhibition of p34cdc2/cyclin B.
For assay [13], the target named is Mitogen-activated protein kinase 3 (Homo sapiens, UniProt P27361). The assay can be described thus: Inhibition of ERK1.
Mitogen-activated protein kinase 3, sequence (P27361 whole entry): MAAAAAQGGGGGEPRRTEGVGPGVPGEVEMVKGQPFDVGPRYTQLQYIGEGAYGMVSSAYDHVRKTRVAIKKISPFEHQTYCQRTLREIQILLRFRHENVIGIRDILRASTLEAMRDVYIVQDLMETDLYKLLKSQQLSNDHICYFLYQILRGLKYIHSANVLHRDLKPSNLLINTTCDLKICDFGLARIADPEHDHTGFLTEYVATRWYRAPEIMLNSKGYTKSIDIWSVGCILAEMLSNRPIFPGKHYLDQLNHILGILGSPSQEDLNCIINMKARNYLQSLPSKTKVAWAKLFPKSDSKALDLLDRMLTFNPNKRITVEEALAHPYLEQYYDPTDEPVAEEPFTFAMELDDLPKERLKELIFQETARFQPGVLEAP
Assay [14] in a line: Inhibition of NS3-associated HCV viral helicase activity using RNA substrate. The arrangement: species or system Hepacivirus hominis.

Calcium/calmodulin-dependent protein kinase type II subunit beta (Homo sapiens), sequence (Q13554 whole entry): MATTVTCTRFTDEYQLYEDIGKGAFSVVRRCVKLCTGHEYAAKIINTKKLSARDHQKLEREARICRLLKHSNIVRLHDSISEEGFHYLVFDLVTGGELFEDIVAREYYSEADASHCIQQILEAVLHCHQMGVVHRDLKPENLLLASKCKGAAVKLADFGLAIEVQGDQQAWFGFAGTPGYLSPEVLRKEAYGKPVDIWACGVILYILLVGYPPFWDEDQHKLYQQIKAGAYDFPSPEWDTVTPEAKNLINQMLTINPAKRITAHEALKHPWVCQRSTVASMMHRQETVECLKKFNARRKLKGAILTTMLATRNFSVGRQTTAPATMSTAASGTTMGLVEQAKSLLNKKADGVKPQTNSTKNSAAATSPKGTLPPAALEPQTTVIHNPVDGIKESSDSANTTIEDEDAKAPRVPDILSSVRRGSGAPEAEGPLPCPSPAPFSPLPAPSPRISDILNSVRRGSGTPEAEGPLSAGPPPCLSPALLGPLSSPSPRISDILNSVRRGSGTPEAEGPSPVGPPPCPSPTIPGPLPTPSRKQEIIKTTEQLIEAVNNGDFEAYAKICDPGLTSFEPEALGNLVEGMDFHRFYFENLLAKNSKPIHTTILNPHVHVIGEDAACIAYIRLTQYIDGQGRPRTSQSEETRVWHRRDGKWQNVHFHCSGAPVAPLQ
Calcium/calmodulin-dependent protein kinase type II subunit delta (Homo sapiens), sequence (Q13557 whole entry): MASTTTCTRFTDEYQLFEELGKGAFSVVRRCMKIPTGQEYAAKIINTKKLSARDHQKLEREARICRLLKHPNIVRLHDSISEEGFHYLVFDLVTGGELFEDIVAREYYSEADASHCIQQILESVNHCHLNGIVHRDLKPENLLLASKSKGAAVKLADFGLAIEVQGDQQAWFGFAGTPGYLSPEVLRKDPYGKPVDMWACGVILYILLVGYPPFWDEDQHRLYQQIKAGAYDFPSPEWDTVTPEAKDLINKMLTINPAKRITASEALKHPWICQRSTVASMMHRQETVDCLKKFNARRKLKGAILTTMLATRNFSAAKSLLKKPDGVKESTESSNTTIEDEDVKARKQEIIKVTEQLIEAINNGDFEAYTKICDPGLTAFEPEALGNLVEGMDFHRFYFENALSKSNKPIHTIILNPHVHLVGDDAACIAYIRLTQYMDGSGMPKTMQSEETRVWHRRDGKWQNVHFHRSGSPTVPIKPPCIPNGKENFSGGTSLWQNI
Glycogen synthase kinase-3 beta, sequence (P49841 whole entry, looked up): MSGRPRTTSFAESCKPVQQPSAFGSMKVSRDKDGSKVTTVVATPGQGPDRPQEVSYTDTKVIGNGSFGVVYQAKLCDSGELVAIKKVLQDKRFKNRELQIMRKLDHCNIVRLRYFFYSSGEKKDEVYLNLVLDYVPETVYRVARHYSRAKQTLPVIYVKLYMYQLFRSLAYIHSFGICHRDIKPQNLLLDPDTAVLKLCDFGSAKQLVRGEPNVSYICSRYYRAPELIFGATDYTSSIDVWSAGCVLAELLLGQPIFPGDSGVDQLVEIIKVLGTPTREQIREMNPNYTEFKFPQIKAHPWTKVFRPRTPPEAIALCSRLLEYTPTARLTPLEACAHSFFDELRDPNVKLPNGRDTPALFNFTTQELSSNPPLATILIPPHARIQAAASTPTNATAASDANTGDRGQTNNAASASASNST
Tyrosine-protein kinase ZAP-70, sequence (P43403 whole entry): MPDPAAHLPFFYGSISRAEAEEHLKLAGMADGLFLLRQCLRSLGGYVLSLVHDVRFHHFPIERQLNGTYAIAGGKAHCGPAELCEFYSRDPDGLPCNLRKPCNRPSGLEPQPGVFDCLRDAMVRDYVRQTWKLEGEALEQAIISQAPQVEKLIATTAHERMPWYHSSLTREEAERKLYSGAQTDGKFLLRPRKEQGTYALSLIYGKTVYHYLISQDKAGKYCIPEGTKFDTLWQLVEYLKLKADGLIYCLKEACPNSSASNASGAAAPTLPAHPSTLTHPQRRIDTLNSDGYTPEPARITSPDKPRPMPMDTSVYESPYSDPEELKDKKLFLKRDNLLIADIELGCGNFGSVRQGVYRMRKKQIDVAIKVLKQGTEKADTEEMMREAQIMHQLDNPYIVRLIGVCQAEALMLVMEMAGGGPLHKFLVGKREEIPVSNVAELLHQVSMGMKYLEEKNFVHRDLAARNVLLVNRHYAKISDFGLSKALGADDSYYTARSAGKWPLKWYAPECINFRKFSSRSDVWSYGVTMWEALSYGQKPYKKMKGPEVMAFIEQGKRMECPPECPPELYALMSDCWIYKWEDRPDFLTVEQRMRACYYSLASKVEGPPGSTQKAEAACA

`CCCCc1c(-c2ccc(O)cc2)[nH]c2nccnc12` [ALOISINE A]: the ΔTm in assay [1] turned out to be 0.7 °C; in assay [2], 1.9 °C; in [3], 0.5 °C; in [4] it was 1 °C; in [6], 1.8 °C; in [7], 1.1 °C. The ΔTm in assay [8] was 8.3 °C; in [9], -0.2 °C. This molecule also showed an IC50 in assay [5] of 3 µM.

For `CC(C)(C)n1nc(-c2ccc(Cl)cc2)c2c(N)ncnc21`, the ΔTm is 2.1 °C in [1]; 1.4 °C in [2]; 0.2 °C in [3]; 4.6 °C in [4]; -0.1 °C in assay [6]; 0.4 °C in [7]. Further, the ΔTm in assay [8] came to 0.5 °C; in assay [9], 0 °C. This molecule had an IC50 in assay [10] greater than 100 µM.

Consider `NCCNc1ncc(C(N)=O)c(Nc2cccc(C(F)(F)F)c2)n1`, for which the ΔTm in [1] was 1.6 °C; in [2], 1.6 °C; in [3] it was 0.4 °C; in assay [4], 2 °C; in assay [6] it was -0.6 °C; in assay [7], 1.1 °C. Moreover, the figures for the ΔTm in assay [8] and in assay [9] were 8.1 °C and 3.6 °C, respectively. The IC50 worked out at 11.2 µM in assay [10] and 5.1 µM in assay [11].

Turning to `CCOc1cc2ncnc(Nc3cccc(Br)c3)c2cc1OCC`, the ΔTm in assay [1] is 0.3 °C; in assay [2], 1 °C; in assay [3], 0.8 °C; in assay [4] it was 2.2 °C; in assay [6] it was 0.6 °C; in [7], 0.5 °C. The ΔTm in [8] turned out to be 2.8 °C; in [9] it was 0 °C. This molecule displayed an IC50 in assay [12] of 300 µM.

Take `N#C/C(=C(/N)Sc1ccc(N)cc1)c1ccccc1C(F)(F)F`: the ΔTm in assay [1] was found to be 0.2 °C; in assay [2] it was 0 °C; in assay [3], 0.5 °C; in assay [4] it was 0 °C; in assay [6] it was 0.1 °C; in assay [7], 0.1 °C. The values for the ΔTm in assay [8] and in [9] were -0.1 °C and 0.4 °C, respectively. In addition, the values for the IC50 in assay [13], in [14] and in assay [5] were greater than 10 µM, 0.18 µM and greater than 10 µM, respectively.

As a reminder, the ΔTm is the change in melting temperature against a reference sample. As a reminder, the IC50 is the point on the concentration scale where inhibition reaches its midpoint. Lower therefore signals greater potency.
